The term logP denotes a log measure of how a compound divides between an organic and an aqueous phase. Read a high logP as a more lipophilic compound.

Drawing on ChEMBL document CHEMBL3217460, “Interactions of polysulfanes with components of red blood cells” (Medchemcomm, 2011), this text covers logP and Activity for six compounds.

Active and inactive are the calls of the source. No cut-off for these calls is given here.

The nature of data set [1]: physchem.
Data set [2] deals with Erythrocyte. The data set can be described thus: Hemolytic activity in human RBC assessed as phosphatidylserine exposure on outer leaflet of cell membrane at 50 uM after 20 mins by annexin V-FITC staining-based FACS analysis. It is filed as functional. (In general: In flow cytometry, cells or beads pass a laser one at a time.)
For data set [3], the system named is Erythrocyte. The data set can be described thus: Hemolytic activity in human RBC assessed as oxidation of hemoglobin to methemoglobin after 30 mins by UV-Vis spectrophotometric analysis. In kind it is functional, cell-based.
In data set [4] the target is T1, Hemoglobin HbA (Homo sapiens) (UniProt P69905+P68871). The data set is described as follows: Binding affinity to human hemoglobin by CD spectroscopic analysis.
The target of data set [5] is T1, Hemoglobin HbA (Homo sapiens). The data set can be described thus: Binding affinity to human hemoglobin at 100 to 300 uM by UV-Vis spectrophotometric analysis.

T1 sequence (P68871 2-147 partner limits assumed): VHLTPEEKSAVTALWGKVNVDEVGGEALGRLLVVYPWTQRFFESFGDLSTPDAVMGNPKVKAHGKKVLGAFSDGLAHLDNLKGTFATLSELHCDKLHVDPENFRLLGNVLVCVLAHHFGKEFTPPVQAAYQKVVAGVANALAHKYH
T1 sequence (P69905 2-142 limits assumed): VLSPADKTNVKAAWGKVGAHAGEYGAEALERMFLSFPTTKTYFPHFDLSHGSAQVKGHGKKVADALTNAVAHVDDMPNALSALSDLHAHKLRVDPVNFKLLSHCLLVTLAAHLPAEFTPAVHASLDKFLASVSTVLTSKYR

In data set [1], `C=CCCCCCCC=C` yielded a logP at 1000 µM of 4.71.

Take `C=CCSSSCC=C`: the result in data set [2], in data set [4] and in data set [5] was Active. Moreover, in data set [3], the Activity result was “Dose-dependent effect”.

In the case of `C=CCS`, the outcome in data set [2] was Active.

Turning to `C=CCSCC=C`, the result in data set [2], in data set [4] and in data set [5] was Active.

Turning to `C=CCSSCC=C`, the outcome in data set [2], in data set [4] and in data set [5] was Active. This compound also displayed a logP at 1000 µM in data set [1] of 2.72.

As to `C=CCSSSSCC=C`, the result in data set [2], in data set [4] and in data set [5] was Active. Besides, the Activity entry in data set [3] was “Dose-dependent effect”.
